Assay results as given in US20060211668A1, “Use of ciclesonide for the treatment of inflammatory bowel diseases” (ALTANA PHARMA AG, priority 2003, published 2006).

How the values were obtained:
[1] = system: TNBS-induced Colits in the rat; test: TNBS-induced colitis in the rat, intrarectal administration; assay type: in vivo; settings: for max Colon width: lowest dose that impacts the parameter to a relevant extent (inhibition of the TNBS-induced increase): TNBS 30 mg/kg rectally, compound intrarectal twice daily days -1 to +2, sacrificed day 2; for Thymus weight: lowest dose that impacts the parameter to a relevant extent (amplification of the TNBS-induced decrease) / Weight of adrenal glands: lowest dose that impacts the parameter to a relevant extent (inhibition of the TNBS-induced increase): TNBS colitis, intrarectal twice daily, side effect parameter
Method: As an animal model of Inflammatory Bowel Disease, the TNBS-induced Colits in the rat had been used.
48 h fasted rats (220-250 g b.w.) received rectally 0,9 ml of a solution consisting of 30% ethanol, 30 mg/kg TNBS (Trinitrobenzoesulfonic acid) in an oral distance of 8-9 cm from the anus. Compound administration days −1 to +2. Animals were sacrified on day 2. For intrarectal administration the compounds were solved in 1% ethanol, 10% Propyleneglycol and 20% Cyclodextrin. The used range of concentrations was identical for all compounds. Intrarectal administration schedule: twice daily. Compounds used: Ciclesonide and for comparison, Budesonide and Dexamethasone.
As parameters for the estimation of the pharmacological effects of the compounds, max. colon width had been used. As for the estimation of potential side effects, the weights of thymus and adrenal glands have been registrated.
The efficacy of a treatment was calculated on the reference of controls that received either no TNBS or TNBS rectally, establishing the range of 100 to 0% inhibition, respectively, in the drug screening.

[2] = human; cited from earlier work

Structure (SMILES)	max Colon width: lowest dose that impacts the parameter to a relevant extent (inhibition of the TNBS-induced increase) [1]	Thymus weight: lowest dose that impacts the parameter to a relevant extent (amplification of the TNBS-induced decrease) ([1]; highest assessed dose 6.9)	Weight of adrenal glands: lowest dose that impacts the parameter to a relevant extent (inhibition of the TNBS-induced increase) ([1]; highest assessed dose 6.9)	Weight of adrenal glands: lowest dose that impacts the parameter to a relevant extent (inhibition of the TNBS-induced increase) ([1]; highest assessed dose 6.9, listed as budenoside)	Thymus weight: lowest dose that impacts the parameter to a relevant extent (amplification of the TNBS-induced decrease) ([1]; highest assessed dose 6.9, listed as ciclesonide) [μmol/animal]	Oral bioavailability [2]
C[C@@H]1C[C@H]2[C@@H]3CCC4=CC(=O)C=C[C@]4(C)[C@@]3(F)[C@@H](O)C[C@]2(C)[C@@]1(O)C(=O)CO [Dexamethasone]	0.69 μmol/animal					
CCCC1O[C@@H]2C[C@H]3[C@@H]4CCC5=CC(=O)C=C[C@]5(C)[C@H]4[C@@H](O)C[C@]3(C)[C@]2(C(=O)CO)O1 (stereo partly shown) [Budesonide]	2.3-6.9 μmol/animal	2.3 μmol/animal	n.e. @ 6.9 μmol/animal	does not reverse		
CC(C)C(=O)OCC(=O)[C@@]12O[C@H](C3CCCCC3)O[C@@H]1C[C@H]1[C@@H]3CCC4=CC(=O)C=C[C@]4(C)[C@H]3[C@@H](O)C[C@@]12C [Ciclesonide, [11β,16α(R)]-16,17-[(cyclohexylmethylene)bis(oxy)]-11-hydroxy-21-(2-methyl-1-oxopropoxy)pregna-1,4-diene-3,20-dione]	2.3 μmol/animal	n.e. @ 6.9 μmol/animal	2.3 μmol/animal		> 6.9	below 1%
